{"source": "patent US7416741B2", "about": "“Copper lowering treatment of inflammatory and fibrotic diseases” (The Regents of the University of Michigan, priority 2002, dated 2008)", "key": {"[1]": {"assay": "Solubility and stability of TM salts", "settings": "other salts of TM", "source_text": "Thus, other salts have been prepared and evaluated for solubility, stability and anticopper activity."}, "[2]": {"assay": "In vitro copper complexing studies", "settings": "compared with ammonium salt of TM"}, "hAPP tg mice": {"tested_on": "hAPP tg mice", "settings": "pharmacologic treatment of hAPP tg mice; cited from earlier work"}, "[3]": {"tested_on": "Wilson's disease patients", "settings": "cited from earlier work"}, "bleomycin mouse model": {"tested_on": "bleomycin mouse model", "settings": "in vivo; cited from earlier work"}, "[4]": {"tested_on": "Wilson's disease patients", "settings": "at cupruresis of 2-3 mg", "procedure": "Ingestion of copper is about 1 mg/day, with obligatory, non-urine losses of about 0.5 mg."}, "cancer patients": {"tested_on": "cancer patients", "settings": "cited from earlier work"}, "[5]": {"settings": "therapeutic dose 1,000-2,000 mg/day"}}, "data": [{"compound": "CCC[N+](CCC)(CCC)CCC.CCC[N+](CCC)(CCC)CCC.[S]=[Mo](=[S])([S-])[S-]", "note": "[TPTM, tetrapropyl tetrathiomolybdate]", "values": [{"measurement": "solubility in water", "setting": "[1]", "result": "suitable solubility in water"}, {"measurement": "in vitro copper complexing", "setting": "[2]", "result": "behave similarly to ammonium salt of TM"}]}, {"compound": "C[N+](C)(C)CCO.C[N+](C)(C)CCO.[SH-].[SH-].[S]=[Mo]=[S]", "note": "[choline TM]", "values": [{"measurement": "in vitro copper complexing", "setting": "[2]", "result": "behave similarly to ammonium salt of TM"}]}, {"compound": "Oc1c(I)cc(Cl)c2cccnc12", "note": "[clioquinol]", "values": [{"measurement": "amyloid pathology", "setting": "hAPP tg mice", "result": "prevented"}]}, {"compound": "CC(C)Cc1ccc(C(C)C(=O)O)cc1", "note": "(centres unmarked) [ibuprofen]", "values": [{"measurement": "amyloid pathology", "setting": "hAPP tg mice", "result": "prevented"}]}, {"compound": "CC(C)(S)[C@@H](N)C(=O)O", "note": "[penicillamine]", "values": [{"measurement": "patients developing initial hypersensitivity syndrome", "setting": "[3]; human, in vivo", "result": "about a quarter to a third of patients"}]}, {"compound": "Cc1ccc(=O)n(-c2ccccc2)c1", "note": "[perfenidone]", "values": [{"measurement": "efficacy in the bleomycin mouse model", "setting": "bleomycin mouse model", "result": "effective in the bleomycin mouse model"}]}, {"compound": "CC[N+](CC)(CC)CC.CC[N+](CC)(CC)CC.[S]=[Mo](=[S])([S-])[S-]", "note": "[tetraethyl TM]", "values": [{"measurement": "solubility in water", "setting": "[1]", "result": "suitable solubility in water"}, {"measurement": "in vitro copper complexing", "setting": "[2]", "result": "behave similarly to ammonium salt of TM"}]}, {"compound": "NCCNCCNCCN", "note": "[trientine]", "values": [{"measurement": "patients with proteinuria", "setting": "[3]; after several weeks of use", "result": "about 20%"}, {"measurement": "cupruresis after the first few weeks of therapy", "setting": "[3]; [5]", "result": "2 to 3", "unit": "mg"}, {"measurement": "cupruresis, initial", "setting": "[3]; [5]", "result": "4 to 5", "unit": "mg"}, {"measurement": "negative copper balance", "setting": "[4]", "result": "1.5 to 2.5", "unit": "mg/day"}]}, {"compound": "CC(=O)[O-].CC(=O)[O-].[Zn+2]", "note": "[zinc, zinc acetate]", "values": [{"measurement": "copper balance induced", "setting": "[3]; Wilson's patients, average", "result": "−0.35", "unit": "mg daily"}, {"measurement": "time to achieve intestinal metallothionein induction and a negative copper balance", "setting": "[3]; Wilson's patients", "result": "approximately two"}, {"measurement": "time to bring urine copper and nonceruloplasmin plasma copper down to subtoxic levels", "setting": "[3]; zinc therapy", "result": "six"}]}, {"compound": "bleomycin", "values": [{"measurement": "patients developing pulmonary fibrosis", "setting": "cancer patients", "result": "about 3%"}]}]}
